Data on twelve molecules can be found in ChEMBL document CHEMBL4130363, “Synthesis and pharmacological evaluation of benzamide derivatives as potent and selective sigma-1 protein ligands” (Eur J Med Chem, 2017).

Each structure is given as a SMILES string.

For test [1], the target named is T1, Alpha-2B adrenergic receptor (Homo sapiens) (UniProt P18089).
T1 sequence (whole entry): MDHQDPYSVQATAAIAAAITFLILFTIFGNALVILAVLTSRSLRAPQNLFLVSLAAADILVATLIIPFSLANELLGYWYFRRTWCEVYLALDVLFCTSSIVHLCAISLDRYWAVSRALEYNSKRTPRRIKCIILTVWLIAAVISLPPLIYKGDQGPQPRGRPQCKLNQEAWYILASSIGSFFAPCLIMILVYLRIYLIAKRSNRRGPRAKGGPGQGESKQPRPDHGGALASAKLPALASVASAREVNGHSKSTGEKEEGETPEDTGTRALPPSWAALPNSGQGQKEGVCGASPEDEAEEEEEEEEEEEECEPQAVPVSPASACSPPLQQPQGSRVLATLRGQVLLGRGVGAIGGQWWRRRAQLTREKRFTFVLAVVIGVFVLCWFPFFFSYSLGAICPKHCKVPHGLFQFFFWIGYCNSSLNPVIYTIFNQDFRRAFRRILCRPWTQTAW
Kind of test: Antagonist activity at recombinant human alpha-2b adrenergic receptor assessed as inhibition of agonist-induced effect at 10 uM by GTPgamma[35S] binding-based assay. It is filed as functional. For orientation: GTPγS is a poorly hydrolysed GTP analogue; its binding reports G protein activation.

In test [2] the target is Beta-1 adrenergic receptor (Homo sapiens) (UniProt P08588). Briefly: Antagonist activity at recombinant human beta-1 adrenergic receptor assessed as inhibition of agonist-induced cAMP induction at 10 uM by HTRF assay. The test is classed as functional.
Test [3] concerns the target T2, Substance-K receptor (Homo sapiens) (UniProt P21452).
T2 sequence (whole entry): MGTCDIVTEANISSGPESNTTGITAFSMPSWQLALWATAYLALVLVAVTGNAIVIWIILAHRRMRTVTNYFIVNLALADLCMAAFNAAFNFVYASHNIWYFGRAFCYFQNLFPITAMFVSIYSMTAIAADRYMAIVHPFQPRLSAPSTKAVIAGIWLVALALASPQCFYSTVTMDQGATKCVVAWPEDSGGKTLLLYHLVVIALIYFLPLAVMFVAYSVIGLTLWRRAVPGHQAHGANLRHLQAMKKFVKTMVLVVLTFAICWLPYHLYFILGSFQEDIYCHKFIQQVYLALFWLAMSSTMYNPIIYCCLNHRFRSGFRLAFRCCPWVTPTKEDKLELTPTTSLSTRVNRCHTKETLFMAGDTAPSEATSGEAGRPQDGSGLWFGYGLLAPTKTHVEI
Kind of test: Agonist activity at recombinant human NK2R assessed at 10 uM by aequorin reporter based assay relative to agonist. The test is classed as functional.

The target in test [4] is D(2) dopamine receptor (Homo sapiens) (UniProt P14416). Kind of test: Agonist activity at recombinant human dopamine D2L receptor at 10 uM by GTPgamma[35S] binding-based assay relative to agonist.
Test [5] has as its target Kappa-type opioid receptor (Homo sapiens) (UniProt P41145). Kind of test: Antagonist activity at human kappa-type opioid receptor assessed as inhibition of agonist-induced effect at 10 uM by GTPgamma[35S] binding-based assay. The test is classed as functional.
In test [6] the target is T3, Cholecystokinin receptor type A (Homo sapiens) (UniProt P32238).
T3 sequence (whole entry): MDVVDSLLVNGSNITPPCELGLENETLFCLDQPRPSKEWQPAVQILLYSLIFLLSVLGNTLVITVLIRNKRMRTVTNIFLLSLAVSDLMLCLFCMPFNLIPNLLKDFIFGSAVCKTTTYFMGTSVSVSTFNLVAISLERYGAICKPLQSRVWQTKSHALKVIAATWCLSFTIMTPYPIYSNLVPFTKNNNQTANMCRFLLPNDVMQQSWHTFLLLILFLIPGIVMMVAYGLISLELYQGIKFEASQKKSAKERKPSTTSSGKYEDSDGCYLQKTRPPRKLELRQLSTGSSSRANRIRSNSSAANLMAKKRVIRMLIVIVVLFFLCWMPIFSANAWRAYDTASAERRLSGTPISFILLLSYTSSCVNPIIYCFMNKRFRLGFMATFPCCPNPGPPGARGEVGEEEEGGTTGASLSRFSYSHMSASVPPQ
Briefly: Agonist activity at recombinant human […] receptor at 10 uM by aequorin reporter based assay relative to agonist. It is filed as functional.

The target in test [7] is Substance-P receptor (Homo sapiens) (UniProt P25103). Kind of test: Agonist activity at recombinant human NK1R at 10 uM by aequorin reporter based assay relative to agonist. It is filed as functional.
Test [8] deals with T4, Alpha-1B adrenergic receptor (Homo sapiens) (UniProt P35368).
T4 sequence (whole entry): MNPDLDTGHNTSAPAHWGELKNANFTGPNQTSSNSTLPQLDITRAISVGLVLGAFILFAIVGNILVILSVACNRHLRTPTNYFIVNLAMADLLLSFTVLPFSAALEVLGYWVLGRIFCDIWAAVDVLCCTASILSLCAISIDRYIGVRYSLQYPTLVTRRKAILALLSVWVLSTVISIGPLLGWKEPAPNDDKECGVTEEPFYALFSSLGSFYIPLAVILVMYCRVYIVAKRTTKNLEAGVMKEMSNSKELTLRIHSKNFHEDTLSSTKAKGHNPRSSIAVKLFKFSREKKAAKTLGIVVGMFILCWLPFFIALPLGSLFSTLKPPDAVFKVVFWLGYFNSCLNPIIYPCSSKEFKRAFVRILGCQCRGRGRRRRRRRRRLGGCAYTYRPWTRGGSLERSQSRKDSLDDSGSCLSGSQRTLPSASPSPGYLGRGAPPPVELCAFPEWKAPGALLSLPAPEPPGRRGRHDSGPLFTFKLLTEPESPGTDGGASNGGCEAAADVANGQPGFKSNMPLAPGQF
Kind of test: Agonist activity at recombinant human alpha-1b adrenergic receptor […] at 10 uM by aequorin reporter based assay relative to agonist. The test is classed as functional. A general note: Changes in cAMP serve as a functional read-out for many G protein-coupled receptors.

Test [9] addresses Histamine H1 receptor (Homo sapiens) (UniProt P35367). Kind of test: Antagonist activity at recombinant human histamine H1 receptor assessed as inhibition of agonist-induced effect at 10 uM by aequorin reporter based assay. It is filed as functional.
For test [10], the target named is T5, 5-hydroxytryptamine receptor 2C (Homo sapiens) (UniProt P28335).
T5 sequence (whole entry): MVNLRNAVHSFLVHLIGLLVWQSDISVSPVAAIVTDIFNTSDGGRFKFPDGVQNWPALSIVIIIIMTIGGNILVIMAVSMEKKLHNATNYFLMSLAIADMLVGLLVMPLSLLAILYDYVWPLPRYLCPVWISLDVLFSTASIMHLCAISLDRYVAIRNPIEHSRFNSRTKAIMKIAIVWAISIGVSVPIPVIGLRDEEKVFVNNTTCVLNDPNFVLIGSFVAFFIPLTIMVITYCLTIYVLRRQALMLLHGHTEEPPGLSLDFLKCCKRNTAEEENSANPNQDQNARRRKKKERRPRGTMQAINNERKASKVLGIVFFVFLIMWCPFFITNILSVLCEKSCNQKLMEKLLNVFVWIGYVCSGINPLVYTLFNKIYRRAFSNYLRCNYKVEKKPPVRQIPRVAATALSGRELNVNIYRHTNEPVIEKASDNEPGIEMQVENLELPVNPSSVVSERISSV
Briefly: Antagonist activity at recombinant human 5-HT2C assessed as inhibition of agonist-induced effect at 10 uM by aequorin reporter based assay. The test is classed as functional.

Kappa-type opioid receptor (Homo sapiens), sequence (P41145 whole entry): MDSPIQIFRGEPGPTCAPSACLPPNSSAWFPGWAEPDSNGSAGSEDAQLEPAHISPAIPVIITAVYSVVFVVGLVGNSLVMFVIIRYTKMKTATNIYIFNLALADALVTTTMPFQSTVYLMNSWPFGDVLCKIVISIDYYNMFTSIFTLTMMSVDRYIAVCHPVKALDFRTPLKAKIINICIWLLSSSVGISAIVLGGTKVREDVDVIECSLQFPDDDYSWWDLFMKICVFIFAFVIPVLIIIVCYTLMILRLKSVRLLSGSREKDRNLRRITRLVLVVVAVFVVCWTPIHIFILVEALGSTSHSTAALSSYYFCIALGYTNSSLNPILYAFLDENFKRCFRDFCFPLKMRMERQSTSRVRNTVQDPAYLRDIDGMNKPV
D(2) dopamine receptor (Homo sapiens), sequence (P14416 whole entry): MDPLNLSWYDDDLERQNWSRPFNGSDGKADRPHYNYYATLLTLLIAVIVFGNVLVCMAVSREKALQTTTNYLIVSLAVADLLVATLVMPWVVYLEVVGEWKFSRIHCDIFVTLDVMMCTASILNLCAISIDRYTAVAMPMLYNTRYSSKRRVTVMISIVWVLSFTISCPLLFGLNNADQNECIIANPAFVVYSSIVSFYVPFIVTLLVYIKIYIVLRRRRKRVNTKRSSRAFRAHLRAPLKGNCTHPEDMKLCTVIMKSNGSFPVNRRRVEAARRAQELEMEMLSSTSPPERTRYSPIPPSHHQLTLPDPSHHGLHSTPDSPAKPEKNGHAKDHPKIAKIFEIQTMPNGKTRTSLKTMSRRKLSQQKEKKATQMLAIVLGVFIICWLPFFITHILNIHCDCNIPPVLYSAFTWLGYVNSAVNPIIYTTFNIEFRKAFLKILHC
Histamine H1 receptor (Homo sapiens), sequence (P35367 whole entry): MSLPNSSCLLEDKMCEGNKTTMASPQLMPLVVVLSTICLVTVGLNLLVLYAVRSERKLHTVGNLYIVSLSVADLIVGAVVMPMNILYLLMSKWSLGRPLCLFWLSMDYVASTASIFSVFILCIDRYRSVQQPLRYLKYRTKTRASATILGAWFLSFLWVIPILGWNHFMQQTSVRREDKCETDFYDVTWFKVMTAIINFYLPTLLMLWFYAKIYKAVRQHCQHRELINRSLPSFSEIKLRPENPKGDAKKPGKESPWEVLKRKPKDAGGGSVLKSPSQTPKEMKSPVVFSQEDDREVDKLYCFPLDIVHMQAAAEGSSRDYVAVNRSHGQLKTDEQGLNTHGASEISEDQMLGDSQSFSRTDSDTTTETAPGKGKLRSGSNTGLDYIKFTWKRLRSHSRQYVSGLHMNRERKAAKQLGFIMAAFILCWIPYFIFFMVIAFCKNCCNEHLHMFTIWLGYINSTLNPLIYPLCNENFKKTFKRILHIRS
Substance-P receptor (Homo sapiens), sequence (P25103 whole entry): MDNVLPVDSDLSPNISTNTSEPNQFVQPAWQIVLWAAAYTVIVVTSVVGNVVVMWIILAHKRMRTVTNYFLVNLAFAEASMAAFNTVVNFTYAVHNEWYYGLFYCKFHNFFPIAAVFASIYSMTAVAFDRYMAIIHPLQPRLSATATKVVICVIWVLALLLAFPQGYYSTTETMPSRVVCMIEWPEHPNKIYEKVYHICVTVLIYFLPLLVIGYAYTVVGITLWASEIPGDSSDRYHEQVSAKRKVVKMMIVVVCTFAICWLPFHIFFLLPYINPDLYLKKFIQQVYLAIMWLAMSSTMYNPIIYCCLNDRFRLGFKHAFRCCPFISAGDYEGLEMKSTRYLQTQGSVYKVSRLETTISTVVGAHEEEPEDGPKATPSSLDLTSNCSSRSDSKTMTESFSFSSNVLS
Beta-1 adrenergic receptor (Homo sapiens), sequence (P08588 whole entry, looked up): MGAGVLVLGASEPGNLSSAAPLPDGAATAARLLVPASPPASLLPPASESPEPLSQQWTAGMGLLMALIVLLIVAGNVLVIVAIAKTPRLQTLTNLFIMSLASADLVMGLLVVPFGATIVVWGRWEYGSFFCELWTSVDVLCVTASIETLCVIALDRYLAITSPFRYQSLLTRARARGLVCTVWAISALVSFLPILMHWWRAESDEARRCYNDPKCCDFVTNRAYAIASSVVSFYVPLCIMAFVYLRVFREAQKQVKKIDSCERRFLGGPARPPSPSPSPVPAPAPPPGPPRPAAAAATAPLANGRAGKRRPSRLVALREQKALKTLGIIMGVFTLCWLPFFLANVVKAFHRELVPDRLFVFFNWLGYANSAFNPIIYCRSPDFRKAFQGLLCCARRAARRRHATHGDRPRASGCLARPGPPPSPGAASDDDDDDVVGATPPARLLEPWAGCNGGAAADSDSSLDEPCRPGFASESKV

For the molecule `CCCc1ccc(C(=O)NCCCN(C)Cc2ccccc2)cc1`, the inhibition in test [1] amounted to 54%; in [2], 11%; in test [5] it was 26%; in test [9], 25%; in [10], 94%. The Activity in test [3] was 0%; in test [4] it was 4%; in test [6] it was -1%; in test [7] it was 0%; in test [8], -1%.

In the case of `CN(CCCNC(=O)c1ccc(Cl)cc1)Cc1ccccc1`, the inhibition in test [1] amounted to 45%; in [2] it was 8%; in test [5], 24%; in test [9] it was 34%; in test [10], 43%. Also, the Activity in [3] was 0%; in test [4], -3%; in [6], -1%; in test [7] it was 0%; in [8], 0%.

With `CN(CCCNC(=O)c1ccc(Br)cc1)Cc1ccccc1`, the inhibition in [1] was 28%; in [2] it was 9%; in [5], 22%; in test [9] it was 28%; in [10] it was 34%. The Activity in test [3] is 0%; in test [4], -1%; in test [6], -1%; in [7], 0%; in test [8] it was 0%.

For the molecule `COc1cccc(C(=O)NCCCN(C)Cc2ccccc2)c1`, the inhibition in [1] is 27%; in test [2], -5%; in [5], 4%; in test [9], 57%; in test [10] it was 36%. Besides, the Activity is 0% in test [3]; 16% in [4]; -2% in test [6]; 0% in test [7]; 0% in test [8].

Regarding `CN(CCCNC(=O)c1ccc(C(F)(F)F)cc1)Cc1ccccc1`, the inhibition in test [1] is 33%; in [2], 12%; in [5] it was 28%; in test [9], 24%; in [10] it was 24%. The Activity was 0% in test [3]; 25% in test [4]; -2% in test [6]; 0% in [7]; -1% in test [8].

As to `CN(CCCNC(=O)c1ccc([N+](=O)[O-])cc1)Cc1ccccc1`, the inhibition in test [1] was 30%; in [2], 6%; in [5] it was 21%; in test [9] it was 21%; in [10], 11%. Further, the Activity is 0% in [3]; 20% in [4]; -1% in [6]; 0% in test [7]; -1% in [8].

As to `CN(CCNC(=O)c1ccc(C#N)cc1)Cc1ccccc1`, the inhibition worked out at 40% in test [1]; 9% in test [2]; 9% in [5]; 35% in [9]; 34% in test [10]. In addition, the Activity is 0% in test [3]; -23% in test [4]; -2% in test [6]; 0% in test [7]; 0% in [8].

For `COc1ccc(C(=O)NCCCN(C)Cc2ccccc2)cc1`, the inhibition is 29% in test [1]; -1% in test [2]; 23% in [5]; 12% in test [9]; 33% in [10]. The Activity in test [3] was 0%; in test [4], -14%; in test [6] it was -1%; in test [7], 0%; in test [8] it was 0%.

For `CN(CCNC(=O)c1ccc(Cl)cc1)Cc1ccccc1`, the inhibition is 39% in [1]; 7% in [2]; 40% in [5]; 32% in test [9]; 92% in test [10]. In addition, the Activity in test [3] is 1%; in test [4], -2%; in test [6] it was -2%; in [7], 0%; in test [8], -1%.

Take `CN(CCCNC(=O)c1ccc(Cl)cc1)CCc1ccccc1`: the inhibition in test [1] worked out at 83%; in test [2], 11%; in test [5], 26%; in test [9] it was 90%; in [10] it was 95%. Also, the Activity in test [3] was 0%; in [4] it was 25%; in [6] it was -2%; in [7], 0%; in [8], 0%.

Turning to `CN(CCCNC(=O)c1cccc(Br)c1)Cc1ccccc1`, the inhibition in test [1] stood at 38%; in test [2], 12%; in [5], 26%; in [9] it was 74%; in test [10], 54%. Besides, the Activity in [3] is 1%; in [4], -2%; in test [6], 0%; in [7], 0%; in [8] it was -1%.

In the case of `CN(CCNC(=O)c1ccc([N+](=O)[O-])cc1)Cc1ccccc1`, the inhibition in test [1] was 39%; in test [2], -2%; in test [5], 23%; in test [9], 26%; in test [10] it was 80%. In addition, the Activity in test [3] is 0%; in test [4] it was -15%; in test [6], -2%; in test [7] it was 0%; in [8], 0%.

In general, inhibition refers to the drop in the measured response relative to a control, in per cent.
